Where two headings read alike, the source gives them in different places.
Assays:
[1] = test system: phosphorylation of AKT on Ser473 (PI3K pathway) in T-47D (heterozygous PIK3CA H1047R) cell line; assay: PI3K pathway activation assay (pAKT Ser473 HTRF), T-47D cells; type: cell-based; details: T-47D (heterozygous PIK3CA H1047R) cells, two hours of treatment, pAKT Ser473 HTRF, read-out: T47D pAKT IC50
Procedure: (§1) The inhibitory activity of the compounds of the disclosure was evaluated by measuring phosphorylation of AKT on Ser473 as a readout of the PI3K pathway using HTRF (CisBio catalog number: 64AKSPE). These studies were conducted in the T-47D (heterozygous PIK3CA H1047R) and SKBR3 (PIK3CA WT) cell lines. Cells were maintained in a 37° C. incubator at 5% CO2 in the following media: T-47D: RPMI 1640, ATCC© Modification (Gibco, A10491-01) supplemented with 10% v/v FBS (Gibco, 26140-079), 1% penicillin streptomycin (Gibco, 15140-122), and 7.4 ug/mL insulin (MilliporeSigma, I9278); SKBR3: McCoy's 5a (Modified) Medium (Gibco, 16600-082) supplemented with 10% v/v FBS (Gibco, 26140-079). Cells were seeded in 384-well plates at a density of 4,000 cells/well. Compounds dissolved in DMSO were added using a digital dispense (D300E, Tecan) 10-point serial dilution. After two hours of treatment, cells were lysed for thirty minutes and then incubated with detection reagents per HTRF kit material and manufacturer's instructions. Fluorescence signal was measured with a multimode plate reader (Envision 2105, Perkin Elmer). Fluorescent signal was normalized to background and DMSO controls to obtain percent inhibition/activity for each compound.

[2] = test system: phosphorylation of AKT on Ser473 (PI3K pathway) in SKBR3 (PIK3CA WT) cell line; assay: PI3K pathway activation assay (pAKT Ser473 HTRF), SKBR3 cells; type: cell-based; details: Homo sapiens, SK-BR-3, 2 h, two hours of treatment
Procedure: as §1

SMILES | IC50 ([1]; Homo sapiens, T47D, 2 h) | IC50 [2] | IC50 [1]
Cc1cc([C@@H](C)Nc2ccc(Cl)nc2C(=O)O)nc(N2C(=O)OC[C@@H]2Cc2ccncc2F)c1 [Example 21, 6-Chloro-3-(((R)-1-(6-((S)-4-((3-fluoropyridin-4-yl)methyl)-2-oxooxazolidin-3-yl)-4-methylpyridin-2-yl)ethyl)amino)picolinic acid] | < 0.1 µM | 1 to 10 µM | –
Cc1cc([C@@H](C)Nc2ccc(Cl)nc2C(=O)O)nc(N2C(=O)N(C)C[C@@H]2Cc2ccccc2)c1 [Example 60, 3-(((R)-1-(6-((S)-5-Benzyl-3-methyl-2-oxoimidazolidin-1-yl)-4-methylpyridin-2-yl)ethyl)amino)-6-chloropicolinic acid] | < 0.1 µM | 1 to 10 µM | –
Cc1cc([C@@H](C)Nc2ccc(Cl)nc2C(=O)O)nc(N2C(=O)N(C)C[C@@H]2Cc2ccc(F)cc2F)c1 [Example 59, 6-Chloro-3-(((R)-1-(6-((S)-5-(2,4-difluorobenzyl)-3-methyl-2-oxoimidazolidin-1-yl)-4-methylpyridin-2-yl)ethyl)amino)picolinic acid] | 0.1 to 1 µM | > 10 µM | –
C[C@@H](Nc1ccc(Cl)nc1C(=O)O)c1cc(F)cc(N2C(=O)OC[C@@H]2Cc2ccccc2F)c1 [Example 61, 6-Chloro-3-(((R)-1-(3-fluoro-5-((S)-4-(2-fluorobenzyl)-2-oxooxazolidin-3-yl)phenyl)ethyl)amino)picolinic acid] | < 0.1 µM | 1 to 10 µM | –
Cc1cc([C@@H](C)Nc2ccc(Cl)nc2C(=O)O)cc(N2C(=O)OC[C@@H]2Cc2ccc(Br)cc2)c1 [Example 9, 3-(((R)-1-(3-((S)-4-(4-Bromobenzyl)-2-oxooxazolidin-3-yl)-5-methylphenyl)ethyl)amino)-6-chloropicolinic acid] | 1 to 10 µM | – | –
Cc1cc([C@@H](C)Nc2ccc(Cl)nc2C(=O)O)nc(N2C(=O)OC[C@@H]2Cc2cccc3ccccc23)c1 [Example 31, 6-Chloro-3-(((R)-1-(4-methyl-6-((S)-4-(naphthalen-1-ylmethyl)-2-oxooxazolidin-3-yl)pyridin-2-yl)ethyl)amino)picolinic acid] | 0.1 to 1 µM | – | –
CON(C)C(=O)c1ccc(C[C@H]2COC(=O)N2c2cc(C)cc([C@@H](C)Nc3ccc(Cl)nc3C(=O)O)n2)cc1 [Example 52, 6-Chloro-3-(((R)-1-(6-((S)-4-(4-(methoxy(methyl)carbamoyl)benzyl)-2-oxooxazolidin-3-yl)-4-methylpyridin-2-yl)ethyl)amino)picolinic acid] | 0.1 to 1 µM | – | –
Cc1cccc(C[C@H]2COC(=O)N2c2cc(F)cc([C@@H](C)Nc3ccc(Cl)nc3C(=O)O)c2)c1 [Example 62, 6-Chloro-3-(((R)-1-(3-fluoro-5-((S)-4-(3-methylbenzyl)-2-oxooxazolidin-3-yl)phenyl)ethyl)amino)picolinic acid] | 0.1 to 1 µM | – | –
Cc1cc([C@@H](C)Nc2ccc(Cl)nc2C(=O)O)nc(N2C(=O)OC[C@@H]2Cc2cccn3ccnc23)c1 [Example 44, 6-Chloro-3-(((R)-1-(6-((S)-4-(imidazo[1,2-α]pyridin-8-ylmethyl)-2-oxooxazolidin-3-yl)-4-methylpyridin-2-yl)ethyl)amino)picolinic acid] | – | – | 0.1 to 1 µM
Cc1cc([C@@H](C)Nc2ccc(Cl)nc2C(=O)O)nc(N2C(=O)COC[C@@H]2Cc2ccccc2)c1 [Example 57, 3-(((R)-1-(6-((S)-3-Benzyl-5-oxomorpholino)-4-methylpyridin-2-yl)ethyl)amino)-6-chloropicolinic acid] | 0.1 to 1 µM | – | –
Cc1cc(C(C)Nc2ccc(C(F)(F)F)nc2C(=O)O)nc(N2C(=O)OC[C@@H]2Cc2ccccc2)c1 (single isomer, unassigned) [Example 15] | 1 to 10 µM | – | –
Cc1cc([C@@H](C)Nc2ccc(Cl)nc2C(=O)O)nc(N2C(=O)OC[C@@H]2CC2CCC2)c1 [Example 47, 6-Chloro-3-(((R)-1-(6-((S)-4-(cyclobutylmethyl)-2-oxooxazolidin-3-yl)-4-methylpyridin-2-yl)ethyl)amino)picolinic acid] | < 0.1 µM | – | –
CC(Nc1ccc(Cl)nc1C(=O)O)c1cc(Cl)cc(N2C(=O)OC[C@@H]2Cc2ccccc2)c1 (stereo partly drawn) [Example 6, 3-((1-(3-((S)-4-Benzyl-2-oxooxazolidin-3-yl)-5-chlorophenyl)ethyl)amino)-6-chloropicolinic acid] | 0.1 to 1 µM | – | –
Cc1cc(C(C)Nc2ccc(C#N)nc2C(=O)O)nc(N2C(=O)OC[C@@H]2Cc2ccccc2)c1 (stereo partly drawn) [Example 19, 3-((1-(6-((S)-4-Benzyl-2-oxooxazolidin-3-yl)-4-methylpyridin-2-yl)ethyl)amino)-6-cyanopicolinic acid] | 1 to 10 µM | – | –
Cc1cc([C@@H](C)Nc2ccc(Cl)nc2C(=O)O)nc(N2C(=O)OC[C@@H]2Cc2cn(C)c3ncccc23)c1 [Example 39, 6-Chloro-3-(((R)-1-(4-methyl-6-((S)-4-((1-methyl-1H-pyrrolo[2,3-b]pyridin-3-yl)methyl)-2-oxooxazolidin-3-yl)pyridin-2-yl)ethyl)amino)picolinic acid] | < 0.1 µM | – | –
Cc1cc([C@@H](C)Nc2ccc(Cl)nc2C(=O)O)nc(N2C(=O)OC[C@@H]2Cc2nn(C)c3ccccc23)c1 [Example 38, 6-Chloro-3-(((R)-1-(4-methyl-6-((S)-4-((1-methyl-1H-indazol-3-yl)methyl)-2-oxooxazolidin-3-yl)pyridin-2-yl)ethyl)amino)picolinic acid] | 0.1 to 1 µM | – | –
Cc1cc([C@@H](C)Nc2ccc(Cl)nc2C(=O)O)nc(N2C(=O)OC[C@@H]2Cc2ccn(C)n2)c1 [Example 33, 6-Chloro-3-(((R)-1-(4-methyl-6-((S)-4-((1-methyl-1H-pyrazol-3-yl)methyl)-2-oxooxazolidin-3-yl)pyridin-2-yl)ethyl)amino)picolinic acid] | 0.1 to 1 µM | – | –
Cc1cc(C(C)Nc2ccc(C)nc2C(=O)O)nc(N2C(=O)OC[C@@H]2Cc2ccccc2)c1 (single isomer, unassigned) [Example 14] | 0.1 to 1 µM | – | –
Cc1cc([C@@H](C)Nc2ccc(Cl)nc2C(=O)O)nc(N2C(=O)OC[C@@H]2Cc2c[nH]c3ccccc23)c1 [Example 50, 3-(((R)-1-(6-((S)-4-((1H-Indol-3-yl)methyl)-2-oxooxazolidin-3-yl)-4-methylpyridin-2-yl)ethyl)amino)-6-chloropicolinic acid] | 0.1 to 1 µM | – | –
CC(Nc1ccc(F)nc1C(=O)O)c1cc(N2C(=O)OC[C@@H]2Cc2ccccc2)cc(C(F)(F)F)c1 (stereo partly drawn) [Example 8, 3-((1-(3-((S)-4-Benzyl-2-oxooxazolidin-3-yl)-5-(trifluoromethyl)phenyl)ethyl)amino)-6-fluoropicolinic acid] | 1 to 10 µM | – | –
C[C@@H](Nc1ccc(Cl)nc1C(=O)O)c1cc(F)cc(N2C(=O)OC[C@@H]2Cc2ccccc2)c1 [Example 10, 3-(((R)-1-(3-((S)-4-Benzyl-2-oxooxazolidin-3-yl)-5-fluorophenyl)ethyl)amino)-6-chloropicolinic acid] | < 0.1 µM | – | –
CC(Nc1ccc(F)nc1C(=O)O)c1cc(F)cc(N2C(=O)OC[C@@H]2Cc2ccccc2)c1 (stereo partly drawn) [Example 5, 3-((1-(3-((S)-4-Benzyl-2-oxooxazolidin-3-yl)-5-fluorophenyl)ethyl)amino)-6-fluoropicolinic acid] | 0.1 to 1 µM | – | –
Cc1cc(C(C)Nc2ccc(F)nc2C(=O)O)cc(N2C(=O)OC[C@@H]2Cc2ccccc2)c1 (stereo partly drawn) [Example 3, 3-((1-(3-((S)-4-Benzyl-2-oxooxazolidin-3-yl)-5-methylphenyl)ethyl)amino)-6-fluoropicolinic acid] | 0.1 to 1 µM | – | –
Cc1cc([C@@H](C)Nc2ccc(Cl)nc2C(=O)O)nc(N2C(=O)OC[C@@H]2Cc2cc(C)ncc2F)c1 [Example 30, 6-Chloro-3-(((R)-1-(6-((S)-4-((5-fluoro-2-methylpyridin-4-yl)methyl)-2-oxooxazolidin-3-yl)-4-methylpyridin-2-yl)ethyl)amino)picolinic acid] | 0.1 to 1 µM | – | –
Cc1cc([C@@H](C)Nc2ccc(Cl)nc2C(=O)O)nc(N2C(=O)OC[C@@H]2Cc2cnn3ccccc23)c1 [Example 46, 6-Chloro-3-(((R)-1-(4-methyl-6-((S)-2-oxo-4-(pyrazolo[1,5-α]pyridin-3-ylmethyl)oxazolidin-3-yl)pyridin-2-yl)ethyl)amino)picolinic acid] | – | – | < 0.1 µM
Cc1cc([C@@H](C)Nc2ccc(Cl)nc2C(=O)O)nc(N2C(=O)OC[C@@H]2Cc2ccc3nn(C)cc3c2)c1 [Example 43, 6-Chloro-3-(((R)-1-(4-methyl-6-((S)-4-((2-methyl-2H-indazol-5-yl)methyl)-2-oxooxazolidin-3-yl)pyridin-2-yl)ethyl)amino)picolinic acid] | < 0.1 µM | – | –
Cc1cc(C(C)Nc2ccc(Cl)nc2C(=O)O)cc(N2C(=O)OC[C@@H]2Cc2ccccc2)c1 (stereo partly drawn) [Example 1, 3-((1-(3-((S)-4-Benzyl-2-oxooxazolidin-3-yl)-5-methylphenyl)ethyl)amino)-6-chloropicolinic acid] | 0.1 to 1 µM | – | –
